Laboratory results reported in ChEMBL document CHEMBL3632524, “3-(2,6-Dichloro-benzyloxy)-11-oxo-olean-12-ene-29-oic acid, a semisynthetic derivative of glycyrrhetic acid: synthesis, antiproliferative, apoptotic and anti-angiogenesis activity” (Medchemcomm, 2015).
Blank lines part the entries; values can stand above or below the molecule they belong to. Active and inactive are the calls of the source. The rule behind the calls is not given here.

Tests used:
[1] = Antiproliferative activity against human MIAPaCa2 cells assessed as cell viability after 48 hrs by MTT assay; assay type: functional, cell-based; conditions: MIA PaCa-2, 48 h
[2] = tested on: HepG2; assay: Antiproliferative activity against human HepG2 cells assessed as cell viability after 48 hrs by MTT assay; assay type: functional, cell-based; conditions: HepG2, 48 h
[3] = tested on: PC-3; assay: Antiproliferative activity against human PC3 cells assessed as cell viability after 48 hrs by MTT assay; assay type: functional, cell-based; conditions: PC-3, 48 h
[4] = tested on: PC-3; assay: Cell cycle arrest in human PC3 cells assessed as accumulation at G1 phase at 5 uM after 24 hrs by propidium iodide based flow cytometry (reference value: 50%); assay type: functional
[5] = tested on: PC-3; assay: Induction of apoptosis in human PC3 cells assessed as membrane blebbing after 24 hrs by fluorescence microscopic analysis; assay type: functional, cell-based
[6] = tested on: PC-3; assay: Cell cycle arrest in human PC3 cells assessed as accumulation at sub G1 phase at 20 uM after 24 hrs by propidium iodide based flow cytometry (reference value: 3%); assay type: functional
[7] = tested on: PC-3; assay: Down regulation of procaspase-8 expression in human PC3 cells at 5 to 20 uM after 24 hrs by western blot analysis; assay type: functional, cell-based
[8] = tested on: PC-3; assay: Disruption of mitochondrial membrane potential in human PC3 cells at 5 uM after 24 hrs by rhodamine-123 based fluorescence assay (reference value: 5%); assay type: functional
[9] = tested on: PC-3; assay: Antiproliferative activity against human PC3 cells assessed as cell viability after 6 hrs by MTT assay; assay type: functional, cell-based; conditions: PC-3, 6 h
[10] = tested on: PC-3; assay: Antiproliferative activity against human PC3 cells assessed as cell viability after 24 hrs by MTT assay; assay type: functional, cell-based; conditions: PC-3, 24 h
[11] = tested on: PC-3; assay: Cell cycle arrest in human PC3 cells assessed as accumulation at S phase at 20 uM after 24 hrs by propidium iodide based flow cytometry (reference value: 30%); assay type: functional
[12] = tested on: PC-3; assay: Disruption of mitochondrial membrane potential in human PC3 cells at 20 uM after 24 hrs by rhodamine-123 based fluorescence assay (reference value: 5%); assay type: functional
[13] = Up regulation of PARP-1 expression in human PC3 cells at 5 to 20 uM after 24 hrs by western blot analysis; assay type: functional, cell-based; conditions: PC-3
[14] = tested on: PC-3; assay: Cell cycle arrest in human PC3 cells assessed as accumulation at S phase at 5 uM after 24 hrs by propidium iodide based flow cytometry (reference value: 30%); assay type: functional
[15] = tested on: PC-3; assay: Induction of apoptosis in human PC3 cells assessed as apoptotic bodies after 24 hrs by fluorescence microscopic analysis; assay type: functional, cell-based
[16] = tested on: PC-3; assay: Cell cycle arrest in human PC3 cells assessed as accumulation at S phase after 24 hrs by propidium iodide based flow cytometry; assay type: functional
[17] = tested on: PC-3; assay: Cell cycle arrest in human PC3 cells assessed as accumulation at G2 phase at 20 uM after 24 hrs by propidium iodide based flow cytometry (reference value: 20%); assay type: functional
[18] = tested on: HUVEC; assay: Antiangiogenic activity in HUVEC assessed as wound closure level at 20 uM after 24 hrs by wound healing assay (reference value: 100%); assay type: functional, Homo sapiens
[19] = tested on: PC-3; assay: Down regulation of Bcl-2 in human PC3 cells at 10 to 20 uM after 24 hrs by western blot analysis; assay type: functional, cell-based
[20] = tested on: MIA PaCa-2; assay: Antiproliferative activity against human MIAPaCa2 cells assessed as cell viability by MTT assay; assay type: functional, cell-based; conditions: TDE = time-dependent effect
[21] = tested on: PC-3; assay: Disruption of mitochondrial membrane potential in human PC3 cells at 10 uM after 24 hrs by rhodamine-123 based fluorescence assay (reference value: 5%); assay type: functional
[22] = tested on: PC-3; assay: Cell cycle arrest in human PC3 cells assessed as accumulation at G2 phase at 10 uM after 24 hrs by propidium iodide based flow cytometry (reference value: 20%); assay type: functional
[23] = tested on: PC-3; assay: Cell cycle arrest in human PC3 cells assessed as accumulation at sub G1 phase after 24 hrs by propidium iodide based flow cytometry; assay type: functional
[24] = tested on: PC-3; assay: Cell cycle arrest in human PC3 cells assessed as accumulation at sub G1 phase at 5 uM after 24 hrs by propidium iodide based flow cytometry (reference value: 3%); assay type: functional
[25] = tested on: HUVEC; assay: Antiangiogenic activity in HUVEC assessed as VEGF-induced migration after 24 hrs by wound healing assay; assay type: functional, cell-based; conditions: Homo sapiens
[26] = tested on: PC-3; assay: Induction of apoptosis in human PC3 cells assessed as nuclear condensation after 24 hrs by fluorescence microscopic analysis; assay type: functional, cell-based
[27] = tested on: PC-3; assay: Cell cycle arrest in human PC3 cells assessed as accumulation at G1 phase at 20 uM after 24 hrs by propidium iodide based flow cytometry (reference value: 50%); assay type: functional
[28] = tested on: PC-3; assay: Induction of apoptosis in human PC3 cells assessed as decrease in Bcl2 to Bax ratio at 5 to 20 uM after 24 hrs by western blot analysis (reference value: 5); assay type: functional
[29] = tested on: PC-3; assay: Induction of apoptosis in human PC3 cells assessed as translocation of Bax from cytosol to mitochondria at 5 to 20 uM after 24 hrs by western blot analysis; assay type: functional, cell-based
[30] = tested on: PC-3; assay: Antiproliferative activity against human PC3 cells assessed as cell viability after 18 hrs by MTT assay; assay type: functional, cell-based; conditions: PC-3, 18 h
[31] = tested on: PC-3; assay: Antiangiogenic activity in human PC3 cells assessed as VEGF-induced migration at 5 to 30 uM after 24 hrs by wound healing assay; assay type: functional, cell-based
[32] = tested on: PC-3; assay: Cell cycle arrest in human PC3 cells assessed as accumulation at G1 phase at 10 uM after 24 hrs by propidium iodide based flow cytometry (reference value: 50%); assay type: functional
[33] = tested on: PC-3; assay: Antiproliferative activity against human PC3 cells assessed as cell viability after 12 hrs by MTT assay; assay type: functional, cell-based; conditions: PC-3, 12 h
[34] = tested on: PC-3; assay: Cell cycle arrest in human PC3 cells assessed as accumulation at sub G1 phase at 10 uM after 24 hrs by propidium iodide based flow cytometry (reference value: 3%); assay type: functional
[35] = tested on: PC-3; assay: Cell cycle arrest in human PC3 cells assessed as accumulation at S phase at 10 uM after 24 hrs by propidium iodide based flow cytometry (reference value: 30%); assay type: functional
[36] = tested on: PC-3; assay: Cell cycle arrest in human PC3 cells assessed as accumulation at G2 phase at 5 uM after 24 hrs by propidium iodide based flow cytometry (reference value: 20%); assay type: functional

SMILES: CC1(C)[C@@H](OCc2ccc(F)cc2)CC[C@]2(C)[C@H]3C(=O)C=C4[C@@H]5C[C@@](C)(C(=O)O)CC[C@]5(C)CC[C@@]4(C)[C@]3(C)CC[C@@H]12
IC50 [1]: 12 µM
IC50 [2]: > 100 µM
IC50 [3]: 9 µM

SMILES: CC[C@@]1(O)C(=O)OCc2c1cc1n(c2=O)Cc2cc3ccccc3nc2-1 [CAMPTOTHECIN]
IC50 [1]: 0.19 µM
IC50 [2]: 0.2 µM

SMILES: CC1(C)[C@@H](OCc2ccc(Cl)cc2)CC[C@]2(C)[C@H]3C(=O)C=C4[C@@H]5C[C@@](C)(C(=O)O)CC[C@]5(C)CC[C@@]4(C)[C@]3(C)CC[C@@H]12
IC50 [1]: > 20 µM
IC50 [2]: > 20 µM
IC50 [3]: > 20 µM

SMILES: CC1(C)[C@@H](OCc2cccc([N+](=O)[O-])c2)CC[C@]2(C)[C@H]3C(=O)C=C4[C@@H]5C[C@@](C)(C(=O)O)CC[C@]5(C)CC[C@@]4(C)[C@]3(C)CC[C@@H]12
IC50 [1]: > 20 µM
IC50 [2]: > 20 µM
IC50 [3]: > 20 µM

SMILES: CC1(C)[C@@H](OCc2ccccc2[N+](=O)[O-])CC[C@]2(C)[C@H]3C(=O)C=C4[C@@H]5C[C@@](C)(C(=O)O)CC[C@]5(C)CC[C@@]4(C)[C@]3(C)CC[C@@H]12
IC50 [1]: > 20 µM
IC50 [2]: > 20 µM
IC50 [3]: > 20 µM

SMILES: CO[C@H]1CC[C@]2(C)[C@H]3C(=O)C=C4[C@@H]5C[C@@](C)(C(=O)O)CC[C@]5(C)CC[C@@]4(C)[C@]3(C)CC[C@H]2C1(C)C
IC50 [1]: > 20 µM
IC50 [2]: > 20 µM
IC50 [3]: > 20 µM

More lines, main results first:

IC50 [2]: > 20 µM
IC50 [3]: > 20 µM
SMILES: CC1(C)[C@@H](OCc2ccc(F)c(Br)c2)CC[C@]2(C)[C@H]3C(=O)C=C4[C@@H]5C[C@@](C)(C(=O)O)CC[C@]5(C)CC[C@@]4(C)[C@]3(C)CC[C@@H]12
IC50 [1]: > 20 µM

IC50 [2]: > 20 µM
IC50 [3]: > 20 µM
SMILES: CC1(C)[C@@H](OCc2cccc(Cl)c2)CC[C@]2(C)[C@H]3C(=O)C=C4[C@@H]5C[C@@](C)(C(=O)O)CC[C@]5(C)CC[C@@]4(C)[C@]3(C)CC[C@@H]12
IC50 [1]: > 20 µM

IC50 [2]: > 20 µM
IC50 [3]: > 20 µM
SMILES: COc1ccc(CO[C@H]2CC[C@]3(C)[C@H]4C(=O)C=C5[C@@H]6C[C@@](C)(C(=O)O)CC[C@]6(C)CC[C@@]5(C)[C@]4(C)CC[C@H]3C2(C)C)cc1Br
IC50 [1]: > 20 µM

IC50 [9]: 400 µM
IC50 [10]: 15 µM
IC50 [2]: 19 µM
IC50 [30]: 100 µM
IC50 [3]: 6 µM
IC50 [33]: 370 µM
SMILES: CC1(C)[C@@H](OCc2c(Cl)cccc2Cl)CC[C@]2(C)[C@H]3C(=O)C=C4[C@@H]5C[C@@](C)(C(=O)O)CC[C@]5(C)CC[C@@]4(C)[C@]3(C)CC[C@@H]12
Activity [4]: 59%
Activity [5]: Dose-dependent effect
Activity [6]: 37%
Activity [7]: Active
Activity [8]: 12%
IC50 [1]: 7 µM
Activity [11]: 53%
Activity [12]: 38%
Activity [13]: Active
Activity [14]: 40%
Activity [15]: Dose-dependent effect
Activity [16]: Dose-dependent effect
Activity [17]: 4%
Activity [18]: 20%
Activity [19]: Active
Activity [20]: tde
Activity [21]: 15%
Activity [22]: 7%
Activity [23]: Dose-dependent effect
Activity [24]: 8%
Activity [25]: Active
Activity [26]: Dose-dependent effect
Activity [27]: 44%
Ratio [28]: 0.5
Activity [29]: Active
Activity [31]: Dose-dependent effect
Activity [32]: 51%
Activity [34]: 12%
Activity [35]: 42%
Activity [36]: 1%
